The text below walks through data of patent publication US8618043B2, “Use of ADNF polypeptides for treating anxiety and depression” (Ramot at Tel-Aviv University, priority 2003, dated 2013).

The conditions of data set [1]: in vivo; cited from earlier work.
For data set [2] the following is noted: cited from earlier work.
In another data set the test system is ND-Swiss male mice. The experiment in a line: Morris water maze, chronic intranasal NAP. The settings on record: eight-month-old mice. It is filed as in vivo, mouse. As to the method:
ND-Swiss male mice (8 months old; Harlan Sprague Dawley, Inc., Indianapolis, Ind.) were kept under a 12:12 hour light/dark regimen, with food and water available at all times. The mice were kept in the animal care facility of the Tel Aviv University in compliance with institutional and state guidelines.
NAP was custom synthesized by Peninsula (Bachem, Torrance, Calif., USA) or Peptide Technologies (Bethesda, Md., USA). The peptide was dissolved in a solution DD, in which each milliliter included 7.5 mg NaCl, 1.7 mg citric acid monohydrate, 3 mg disodium phosphate dihydrate and 0.2 mg benzalkonium chloride solution (50%). The peptide was administered intranasally every day, 5 days a week, 0.5 μg in 10 μl for each mouse, half the portion in each nostril. The control group received 10 μl of the inert carrier per day. The mice were treated at least 1 h prior to the daily experiment (water maze).
Mice were also subjected to two daily tests in a Morris water maze (diameter 90 cm; depth, 20 cm), as described in WO 01/092333, incorporated herein by reference. Latency to reach the hidden platform over a 90 second test period was recorded. The experiment was performed for 4-5 consecutive days. […] The platform was then removed from the maze and the time spent by the mice in the pool's quarter where the platform used to be was recorded (for 90 seconds). […]

The test system of the next data set is Bovine MAP-rich tubulin. As to the kind of experiment: Microtubule assembly, absorbance at 350 nm. It is filed as biochemical. The note with it: negative control peptide, concentration not given. As to the method:
A microtubule assembly kit CytoDYNAMIX Screen 01(CDS01) was obtained from Cytoskeleton (Denver, Colo.). Bovine MAP-rich tubulin (HTS01) was resuspended in G-PEM buffer (80 mM PIPES pH 6.9, 1 mM MgCl, 1 mM EGTA and 1 mM GTP) and subjected to polymerization at 37° C. The reaction was performed in 96-well plate. Assembly was monitored with a spectrophotometer SPECTRAmax 190 (Molecular Devices, Sunnyvale, Calif.) employing continuous recording at 350 nm.

The subject of data set [3] is astrocytes from newborn rat cerebral cortex. As to the kind of experiment: Confocal microscopy of microtubule re-organization. It is filed as cell-based. As to the method:
Rat cerebral cortical cells from newborn pups were prepared as before (Bassan et al., 1999). All procedures performed in these studies were conducted in accordance with the Tel Aviv University regulations and were approved by the Animal Care and Use Committee of Tel Aviv University. The use of animals was not excessive and no animal suffering occurred. In short, cerebral cortical tissue was incubated for 20 minutes at 37° C. in Hanks' balanced salt solution+15 mM HEPES, pH 7.3 containing trypsin B (Biological Industries, Beit Haemek, Israel). Dissociated cerebral cortical cells were added to the culture dish with 5% horse serum in DMEM. Cells were plated in a ratio of 1 cortex per two 75 cm^2 cell culture flasks (polystyrene, Corning, N.Y.). The medium was changed 1 day after plating. For astrocyte cultures, cells were split after 10 incubation days and plated in 24 well plates (each flask into 60 wells containing microscope cover glasses (12 mm diameter) and 250 μl medium). Cells were then incubated two additional weeks. For mixed neuroglial cultures, dissociated cerebral cortical cells were plated on a bed of astrocytes 2 weeks after the split and incubated in neuron-specific medium as before (Bassan et al., 1999; Brenneman, & Gozes, J. Clin. Invest. 97:2299-2307 (1996); based on Forsythe & Westbrook, J. Physiol. 396:515-533 (1988)). […]

Turning to `CC[C@H](C)[C@H](NC(=O)[C@H](CO)NC(=O)[C@@H](NC(=O)[C@@H]1CCCN1C(=O)[C@H](C)NC(=O)[C@@H](N)CC(N)=O)C(C)C)C(=O)N1CCC[C@H]1C(=O)N[C@@H](CCC(N)=O)C(=O)O` [NAP], the “adverse side effects in toxicology studies” value in data set [1] is “no adverse side effects”. Besides, the brain penetration result in data set [2] (following intranasal administration) is reported as “brain penetration”. Moreover, in data set [2] (radiolabeled peptides, intranasal, intravenous or intraperitoneal administration), the “crossing of the blood-brain barrier” value is “can cross the blood-brain barrier”. In addition, in the data set with ND-Swiss male mice, the “time to reach the visible platform (motor behavior)” value is listed as 24+7.6.

VLGGGSALL [C2]: the “effect on microtubule assembly” value with Bovine MAP-rich tubulin is given as “did not affect”. In data set [3], the “microtubule re-organization / microtubule-associated morphological change” value is listed as “did not induce”.
